Reference: BindingDB's records for patent US11725000 (National Institute of Biological Sciences, Beijing, 2023)

Molecular target: T1, Succinate dehydrogenase [ubiquinone] iron-sulfur subunit, mitochondrial (Homo sapiens, UniProt P21912)
T1 sequence (P21912 whole entry): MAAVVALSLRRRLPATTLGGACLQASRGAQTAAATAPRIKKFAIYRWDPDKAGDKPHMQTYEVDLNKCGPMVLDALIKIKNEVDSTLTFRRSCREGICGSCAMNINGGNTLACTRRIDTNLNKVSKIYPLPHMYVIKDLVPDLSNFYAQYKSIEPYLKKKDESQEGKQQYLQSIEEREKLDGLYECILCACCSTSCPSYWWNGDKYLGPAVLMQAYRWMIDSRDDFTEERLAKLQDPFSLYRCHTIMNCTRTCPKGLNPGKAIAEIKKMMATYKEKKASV
Assay: Apoptosis Inhibition Assay
Excerpt: In order to identify the target protein of tTC09 apoptosis inhibitors, we synthesized two sets of probes for target identification based on the SAR study. The first set of probes was designed for direct activity based protein profiling (ABPP) with biotin tag linked at different site. […] TC09 apoptosis inhibitors could stabilize the mitochondrial respiratory chain after Bim/tBid overexpression and help maintain the normal function of mitochondria. A second set of probes with a terminal alkyne group designed for click-reaction-assisted ABPP were also prepared.

EC50 | SMILES
1 to 10 µM | CS(=O)(=O)c1nc(-c2cccs2)cc(C(F)(F)F)n1 [US11725000, Compound 1]
4.21 µM | CCCS(=O)(=O)c1nc(-c2cccs2)cc(C(F)(F)F)n1 [US11725000, Compound 4]
1.17 µM | CCC[S+]([O-])c1nc(-c2cccs2)cc(C(F)(F)F)n1 (stereo not given) [US11725000, Compound 5]
2.2 µM | [O-][S+](CC1CC1)c1nc(-c2cccs2)cc(C(F)(F)F)n1 (stereo not given) [US11725000, Compound 10]
6.64 µM | O=S(=O)(Cc1ccccc1)c1nc(-c2cccs2)cc(C(F)(F)F)n1 [US11725000, Compound 11]
3.49 µM | [O-][S+](Cc1ccccc1)c1nc(-c2cccs2)cc(C(F)(F)F)n1 (stereo not given) [US11725000, Compound 12]
6.35 µM | N#Cc1ccccc1CS(=O)(=O)c1nc(-c2cccs2)cc(C(F)(F)F)n1 [US11725000, Compound 13]
7.03 µM | N#Cc1ccccc1C[S+]([O-])c1nc(-c2cccs2)cc(C(F)(F)F)n1 (stereo not given) [US11725000, Compound 14]
3.52 µM | N#Cc1cccc(C[S+]([O-])c2nc(-c3cccs3)cc(C(F)(F)F)n2)c1 (stereo not given) [US11725000, Compound 15]
1.16 µM | O=S(=O)(Cc1cc(F)cc(F)c1)c1nc(-c2cccs2)cc(C(F)(F)F)n1 [US11725000, Compound 18]
1.14 µM | [O-][S+](Cc1cc(F)cc(F)c1)c1nc(-c2cccs2)cc(C(F)(F)F)n1 (stereo not given) [US11725000, Compound 19]
0.257 µM | [O-][S+](Cc1ccc(-c2ccccc2)cc1)c1nc(-c2cccs2)cc(C(F)(F)F)n1 (stereo not given) [US11725000, Compound 20]
1.41 µM | O=S(=O)(Cc1ccc([N+]2([O-])CCOCC2)cc1)c1nc(-c2cccs2)cc(C(F)(F)F)n1 [US11725000, Compound 22]
0.057 µM | O=S(=O)(Cc1ccc2c(ccc[n+]2[O-])c1)c1nc(-c2cccs2)cc(C(F)(F)F)n1 [US11725000, Compound 23]
0.11 µM | [O-][S+](Cc1ccc2ncccc2c1)c1nc(-c2cccs2)cc(C(F)(F)F)n1 (stereo not given) [US11725000, Compound 24]
0.069 µM | O=C1CCCN1CC[S+]([O-])c1nc(-c2cccs2)cc(C(F)(F)F)n1 (stereo not given) [US11725000, Compound 25]
0.094 µM | O=S(=O)(CCc1ccccc1)c1nc(-c2cccs2)cc(C(F)(F)F)n1 [US11725000, Compound 26]
0.013 µM | [O-][S+](CCc1ccccc1)c1nc(-c2cccs2)cc(C(F)(F)F)n1 (stereo not given) [US11725000, Compound 27]
0.499 µM | O=C(O)CC[S+]([O-])c1nc(-c2cccs2)cc(C(F)(F)F)n1 (stereo not given) [US11725000, Compound 28]
0.104 µM | CCOC(=O)CCS(=O)(=O)c1nc(-c2cccs2)cc(C(F)(F)F)n1 [US11725000, Compound 29]
4.88 µM | CCOC(=O)CC[S+]([O-])c1nc(-c2cccs2)cc(C(F)(F)F)n1 (stereo not given) [US11725000, Compound 30]
0.064 µM | COC(=O)CCC[S+]([O-])c1nc(-c2cccs2)cc(C(F)(F)F)n1 (stereo not given) [US11725000, Compound 32]
4.48 µM | C[S+]([O-])c1nc(Cl)cc(-c2cccs2)n1 (stereo not given) [US11725000, Compound 33]
0.817 µM | Cc1cc(-c2cccs2)nc(S(C)(=O)=O)n1 [US11725000, Compound 34]
0.995 µM | C#Cc1cc(-c2cccs2)nc(S(C)(=O)=O)n1 [US11725000, Compound 35]
